Measurements as given in patent publication US20060069132A1, “Azolecarboxamide herbicides” (priority 2004, published 2006).

Key:
woolly cupgrass = experiment: Test C pre-/postemergence herbicide test; assay type: in vivo, Eriochloa villosa
Outline: (§1)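 Visual ratings on a 0–100 scale (100 = complete control) made versus untreated controls after 12 to 14 greenhouse days. Test chemicals, formulated in surfactant-containing non-phytotoxic solvent, applied preemergence to planted seeds or postemergence to 1- to 4-leaf plants (2 to 18 cm).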

rice = experiment: Test C flooded paddy test; assay type: in vivo, Oryza sativa
Outline: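 Postemergence sprays applied to plants 2 to 18 cm tall (1- to 4-leaf stage); paddy species grown to 2-leaf stage under flooding. After 12 to 14 days in greenhouse, visual rating versus untreated controls on 0–100 scale (0 no effect, 100 complete control).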

soybean = experiment: Test C pre-/postemergence herbicide test; assay type: in vivo, Glycine max
Outline: as §1

bermudagrass = experiment: Test C pre-/postemergence herbicide test; assay type: in vivo, Cynodon dactylon
Outline: as §1

corn = experiment: Test C pre-/postemergence herbicide test; assay type: in vivo, Zea mays
Outline: as §1

[1] = system: common (oilseed) sunflower; experiment: Test C pre-/postemergence herbicide test; assay type: in vivo, Helianthus annuus
Outline: as §1

velvetleaf = experiment: Test C pre-/postemergence herbicide test; assay type: in vivo, Abutilon theophrasti
Outline: as §1

[2] = system: smallflower umbrella sedge; experiment: Test C flooded paddy test; assay type: in vivo, Cyperus difformis
[3] = 62 g ai/ha, preemergence, scale 0 to 100
[4] = 250 g ai/ha, scale 0-100, preemergence
[5] = 500 g ai/ha, scale 0 to 100 (0 no effect, 100 complete control), visual, 12 to 14 days, preemergence
[6] = 125 g ai/ha, scale 0 to 100 (0 no effect, 100 complete control)
[7] = 250 g ai/ha, scale of 0 to 100, 0 is no effect, 100 is complete control
[8] = 500 g ai/ha, visual rating after 12 to 14 days, scale 0 to 100 (0 no effect, 100 complete control)

For `CCNC(=O)c1ccc(F)c(NC(=O)C2CN(C(C)(C)C)N=C2CC)c1` (stereo not shown) [Compound 336, 1-(1,1-dimethylethyl)-3-ethyl-N-[5-[(ethylamino)carbonyl]-2-fluorophenyl]-4,5-dihydro-1H-pyrazole-4-carboxamide], the pest or weed control at 62 g/ha (woolly cupgrass; Eriochloa villosa, pre-emergence, 312 h, 62 g ai/ha, preemergence, scale 0 to 100, read-out: Plant response rating, Cupgrass, Woolly) was 5%, the pest or weed control at 125 g/ha (woolly cupgrass; Eriochloa villosa, pre-emergence, 312 h, 125 g ai/ha, scale 0 (no effect) to 100 (complete control), visual, 12 to 14 days, read-out: Plant response rating, Cupgrass, Woolly) was 10% and the pest or weed control at 250 g/ha (woolly cupgrass; Eriochloa villosa, pre-emergence, 312 h, 250 g ai/ha, scale 0-100, read-out: Plant response rating, Cupgrass, Woolly) was 60%. The pest or weed control at 500 g/ha (woolly cupgrass; Eriochloa villosa, pre-emergence, 312 h, 500 g ai/ha, scale 0 to 100 (0 no effect, 100 complete control), visual, 12 to 14 days, read-out: Plant response rating, Cupgrass, Woolly) was 85%, the plant injury at 62 g/ha (rice; Oryza sativa, 62 g ai/ha, scale 0 to 100, read-out: Rice plant response rating) was 10% and the plant injury at 125 g/ha (rice; Oryza sativa, 125 g ai/ha, scale 0 to 100 (0 no effect, 100 complete control), read-out: Rice plant response rating) was 45%. The plant injury at 250 g/ha (rice; Oryza sativa, 250 g ai/ha, scale of 0 to 100, 0 is no effect, 100 is complete control, read-out: Rice plant response rating) was 75%, the plant injury at 500 g/ha (rice; Oryza sativa, 500 g ai/ha, visual rating after 12 to 14 days, scale 0 to 100 (0 no effect, 100 complete control), read-out: Plant response rating, Rice) was 75% and the plant injury at 62 g/ha (soybean; Glycine max, pre-emergence, 62 g ai/ha, preemergence, scale 0 to 100, read-out: Plant response rating, Soybean) was 0%. It also gave a plant injury at 250 g/ha (soybean; Glycine max, pre-emergence, 250 g ai/ha, scale 0-100, read-out: Plant response rating, Soybean) of 50%, a plant injury at 500 g/ha (soybean; Glycine max, pre-emergence, 500 g ai/ha, scale 0 to 100 (0 no effect, 100 complete control), visual, 12 to 14 days, read-out: Plant response rating, Soybean) of 100% and a pest or weed control at 62 g/ha (bermudagrass; Cynodon dactylon, pre-emergence, 312 h, 62 g ai/ha, preemergence, scale 0 to 100, 0 no effect, 100 complete control, read-out: Plant response rating, Bermudagrass) of 95%. It also gave a pest or weed control at 125 g/ha (bermudagrass; Cynodon dactylon, pre-emergence, 312 h, 125 g ai/ha, scale 0 (no effect) to 100 (complete control), visual, 12 to 14 days, read-out: Plant response rating, Bermudagrass) of 100%, a pest or weed control at 250 g/ha (bermudagrass; Cynodon dactylon, pre-emergence, 312 h, 250 g ai/ha, scale 0-100, read-out: Plant response rating, Bermudagrass) of 100% and a pest or weed control at 500 g/ha (bermudagrass; Cynodon dactylon, pre-emergence, 312 h, 500 g ai/ha, scale 0 to 100 (0 no effect, 100 complete control), visual, 12 to 14 days, read-out: Plant response rating, Bermudagrass) of 100%. It also gave a Corn plant response rating (crop injury, 0 = no effect, 100 = complete kill) at 62 g/ha (corn; Zea mays, pre-emergence, 312 h, 62 g ai/ha, preemergence, scale 0 to 100) of 10%, a Corn plant response rating (crop injury, 0 = no effect, 100 = complete kill) at 125 g/ha (corn; Zea mays, pre-emergence, 312 h, 125 g ai/ha, scale 0 (no effect) to 100 (complete control), visual, 12 to 14 days) of 35% and a Corn plant response rating (crop injury, 0 = no effect, 100 = complete kill) at 250 g/ha (corn; Zea mays, pre-emergence, 312 h, 250 g ai/ha, scale 0-100) of 85%. For the same molecule, the Corn plant response rating (crop injury, 0 = no effect, 100 = complete kill) at 500 g/ha (corn; Zea mays, pre-emergence, 312 h, 500 g ai/ha, scale 0 to 100 (0 no effect, 100 complete control), visual, 12 to 14 days) was 85%, the pest or weed control at 62 g/ha ([1]; Helianthus annuus, pre-emergence, 62 g ai/ha, preemergence, scale 0 to 100, read-out: Plant response rating, Sunflower) was 0% and the pest or weed control at 250 g/ha ([1]; Helianthus annuus, pre-emergence, 250 g ai/ha, scale 0-100, read-out: Plant response rating, Sunflower) was 30%. The pest or weed control at 500 g/ha ([1]; Helianthus annuus, pre-emergence, 500 g ai/ha, scale 0 to 100 (0 no effect, 100 complete control), visual, 12 to 14 days, read-out: Plant response rating, Sunflower) was 45%, the pest or weed control at 62 g/ha (velvetleaf; Abutilon theophrasti, pre-emergence, 62 g ai/ha, preemergence, scale 0 to 100, read-out: Plant response rating, Velvetleaf) was 5% and the pest or weed control at 250 g/ha (velvetleaf; Abutilon theophrasti, pre-emergence, 250 g ai/ha, scale 0-100, read-out: Plant response rating, Velvetleaf) was 100%. The pest or weed control at 500 g/ha (velvetleaf; Abutilon theophrasti, pre-emergence, 500 g ai/ha, scale 0 to 100 (0 no effect, 100 complete control), visual, 12 to 14 days, read-out: Plant response rating, Velvetleaf) was 100%, the pest or weed control at 62 g/ha ([2]; Cyperus difformis, 62 g ai/ha, scale 0 to 100, read-out: Sedge, Umbrella plant response rating) was 25% and the pest or weed control at 125 g/ha ([2]; Cyperus difformis, 125 g ai/ha, scale 0 to 100 (0 no effect, 100 complete control), read-out: Sedge, Umbrella plant response rating) was 80%. The pest or weed control at 250 g/ha ([2]; Cyperus difformis, 250 g ai/ha, scale of 0 to 100, 0 is no effect, 100 is complete control, read-out: Sedge, Umbrella plant response rating) was 85% and the pest or weed control at 500 g/ha ([2]; Cyperus difformis, 500 g ai/ha, visual rating after 12 to 14 days, scale 0 to 100 (0 no effect, 100 complete control), read-out: Plant response rating, Sedge, Umbrella) was 90%.

For `CCc1nn(C(C)(C)CC)nc1C(=O)Nc1cccc(C(=O)N(C)C)c1` [Compound 372], the “Plant response rating, Cupgrass, Woolly” value (woolly cupgrass; [3]) was 50, the “Plant response rating (0 = no effect, 100 = complete control), Cupgrass, Woolly” value (woolly cupgrass; 125 g ai/ha, preemergence) was 60 and the “Plant response rating, Cupgrass, Woolly” value (woolly cupgrass; [4]) was 70. For the same molecule, the “Plant response rating, Cupgrass, Woolly” value (woolly cupgrass; [5]) was 100, the “Rice plant response rating” value (rice; 62 g ai/ha, scale 0 to 100) was 80 and the “Rice plant response rating” value (rice; [6]) was 85. The “Rice plant response rating” value (rice; [7]) was 90, the “Plant response rating, Rice” value (rice; [8]) was 90 and the “Plant response rating, Soybean” value (soybean; [3]) was 0. The “Plant response rating (0 = no effect, 100 = complete control), Soybean” value (soybean; 125 g ai/ha, preemergence) was 5, the “Plant response rating, Soybean” value (soybean; [4]) was 20 and the “Plant response rating, Soybean” value (soybean; [5]) was 90. For the same molecule, the “Plant response rating, Bermudagrass” value (bermudagrass; 62 g ai/ha, preemergence, scale 0 to 100, 0 no effect, 100 complete control) was 75, the “Plant response rating (0 = no effect, 100 = complete control), Bermudagrass” value (bermudagrass; 125 g ai/ha, preemergence) was 98 and the “Plant response rating, Bermudagrass” value (bermudagrass; [4]) was 98. For the same molecule, the “Plant response rating, Bermudagrass” value (bermudagrass; [5]) was 100, the “Plant response rating, Corn” value (corn; [3]) was 60 and the “Plant response rating (0 = no effect, 100 = complete control), Corn” value (corn; 125 g ai/ha, preemergence) was 60. The “Plant response rating, Corn” value (corn; [4]) was 65, the “Plant response rating, Corn” value (corn; [5]) was 65 and the “Plant response rating, Sunflower” value [1, 3] was 0. For the same molecule, the “Plant response rating (0 = no effect, 100 = complete control), Sunflower” value ([1]; 125 g ai/ha, preemergence) was 0, the “Plant response rating, Sunflower” value [1, 4] was 0 and the “Plant response rating, Sunflower” value [1, 5] was 60. For the same molecule, the “Plant response rating, Velvetleaf” value (velvetleaf; [3]) was 50, the “Plant response rating (0 = no effect, 100 = complete control), Velvetleaf” value (velvetleaf; 125 g ai/ha, preemergence) was 100 and the “Plant response rating, Velvetleaf” value (velvetleaf; [4]) was 100. For the same molecule, the “Plant response rating, Velvetleaf” value (velvetleaf; [5]) was 100, the “Sedge, Umbrella plant response rating” value ([2]; 62 g ai/ha, scale 0 to 100) was 80 and the “Sedge, Umbrella plant response rating” value [2, 6] was 85. The “Sedge, Umbrella plant response rating” value [2, 7] was 85 and the “Plant response rating, Sedge, Umbrella” value [2, 8] was 85.
